# Laboratory results published in patent publication US9351918B2, “Polyglycerol-azelaic acid polyesters for cosmetic applications” (GIULIANI S.P.A., priority 2012, dated 2016).
# What was measured:
# [1] = test system: TNF-α gene expression in human keratinocytes NCTC 2544; experiment: Anti-inflammatory test on NCTC2544: TNF-α gene expression by RT-PCR with LPS from E. coli; type: cell-based; conditions: 20 μM together with LPS 5 μg/ml, 24 hours
# Experimental: The anti-inflammatory effects were investigated of polyglyceryl-3 azelaiate oligomers (POLY-AZ) obtained with the method in Example 1 in an in vitro model of inflammation on human keratinocytes NCTC2544, and using lipopolysaccharide
# (LPS) from E. coli to mediate inflammation or irritation. The effect of the derivative in the models used was compared with that of azelaic acid (AZ-ACID), a known anti-inflammatory agent.
# (§1) The TNF-α gene expression in NCTC 2544 was evaluated using RT-PCR.
# There are four phases to the gene expression analysis:
# 1. Treatment of cells with active compounds for 16, 24 and 48 hours; […]
# (§2) The extracted and quantified total RNA was amplified using the “High Capacity cDNA Reverse Transcription Kit” (Applied Biosystems). […]
# (§3) The relative quantification method was used which compares the relative concentration of the gene of interest (target) in unknown samples to a calibrator or control sample (untreated cells). […]
# (§4) The data provided by the Stratagene Mx3000P tool was recorded by the MXpro v.4.01 software. […]
# Following the preliminary model validation experiment described above, the TNF-α gene expression was evaluated using RT-PCR on NCTC 2544 cells, after treatments with 20 μM of polyglyceryl-3-azelaiate and 20 μM of azelaic acid together with LPS at 5 μg/ml in the culture medium to evaluate the anti-inflammatory effect of the two compounds. […]
# [2] = test system: TNF-α gene expression in human keratinocytes NCTC 2544; experiment: Test of irritancy potential in NCTC2544: TNF-α gene expression by RT-PCR, compared with LPS positive control; type: cell-based; conditions: 20 μM, 24 hours
# Experimental: The irritant potential of the derivative (POLY-AZ) was also determined in vitro compared with a positive control (cells treated with 5 μg/ml of lipopolysaccharide). The results were compared with those obtained using azelaic acid (AZ-ACID) in the same experimental model.
# as §1
# Test of Irritancy Potential in NCTC2544
# When the cells (human keratinocytes NCTC 2544) reached approximately 80% confluence, they were separated with trypsin/EDTA and seeded at a density of 1×10^6 cells/ml in a 12-well plate and then incubated at 37° C., 5% CO2 (24 hours).
# Day 2: 24-Hour Exposure to Substances […]
# as §2, §3, §4
# The TNF-α gene expression in NCTC 2544 cells was also evaluated after treatments with 20 μM of polyglyceryl-3-azelaiate and 20 μM of azelaic acid compared with cells treated with LPS (5 μg/ml) in the culture medium, in order to compare the effects of these compounds against a known irritant agent (LPS). […]
structure (smiles),measurement,setting,value
"O=C(O)CCCCCCCC(=O)O [azelaic acid, nonanedioic acid]",Inhibitory effect on TNF-α gene expression (anti-inflammatory effect),[1],does not produce an inhibitory effect
same,Irritancy potential,[2],neither are irritating
